Assay results published in patent US5298652A, “N-substituted glycines, inhibitors of phospholipase A2” (Hoffmann-La Roche Inc., priority 1992, dated 1994).

Key:
[1] = biological target: T1, HSF-PLA2 (extracellular PLA2 obtained from human synovial fluid) (Homo sapiens, UniProt P14555); assay: Assay for inhibition of HSF-PLA2 in vitro; format: biochemical; settings: read-out: % Inhib of HSF-PLA2
T1 construct: extracellular enzyme obtained from human synovial fluid; from tissue; host or cells: human synovial fluid (pooled)
T1 sequence (P14555 21-144): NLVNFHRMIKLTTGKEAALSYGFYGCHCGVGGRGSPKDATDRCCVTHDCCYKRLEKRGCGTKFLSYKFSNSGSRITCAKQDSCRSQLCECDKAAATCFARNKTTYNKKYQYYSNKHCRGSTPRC
Description: Assay for Inhibition of HSF-PLA2 In Vitro
The PLA2 used in this test is the extracellular enzyme obtained from human synovial fluid (HSF-PLA2).
The assay for HSF-PLA2 activity was a modification of the described method [Franson R., Dobrow R., Weiss, J., Elsbach P., and Weglick W. B., J. Lipid Res., 19, 18-23 (1978)] which was conducted using [1-^14 C]-oleate-labelled E. coli substrate in excess at a final concentration of 20,000 dpm/ml. This was equivalent to 18.2 mM of cell membrane phospholipid phosphorus and 2×10^9 autoclaved E. coli/ml. The optimal conditions which were developed for the assay of HSF-PLA2 inhibitors are summarized as follows. A total volume of 0.5 ml of reaction mixture typically had the following final composition: substrate (20,000 dpm/ml); enzyme (0.1% HSF, v/v); 2 mM CaCl2; 150 mM Na^+; 50 mM sodium HEPES buffer, pH 7.3; and 1% dimethyl sulfoxide (DMSO, used to solubilize test inhibitors) in the presence or absence of inhibitor. The reaction was initiated by the addition of HSF-PLA2 and duplicate samples of the mixture were incubated in 13×100 mm glass tubes with shaking for 30 minutes at 37° C. The reaction was terminated by the addition of 2.5 ml of chloroform-methanol (1 to 1.5, v/v). The extraction of lipids from the stopped reaction mixture was conducted by the further additions of 0.5 ml of chloroform and 1 ml of water with mixing. After centrifuging, the lower chloroform phase was transferred to smaller glass tubes and the solvent was evaporated to dryness with a nitrogen stream. The extracted lipid residue was redissolved in […] of a solution containing carrier oleic acid (0.2 mg/ml) in chloroform-methanol [9 to 1, v/v]). The whole lipid extract was applied to a preactivated (30 minutes at 110° C.) silica gel-impregnated glass fiber thin layer chromatography sheet (ITLC type SG sheet from Gelman Sciences Inc., Ann Arbor, Mich.) using hexane-acetic acid (100 to 1, v/v) as the developing solvent. This TLC system rapidly (6 minutes) resolved the enzymatically released product, ^14 C-oleic acid, from the unreacted ^14 C-phospholipid substrate. The unsaturated lipids were located on the chromatogram by a brief exposure to iodine vapor. The oleic acid zone (Rf value 0.95) and phospholipid zone (origin) were cut out, chopped into small pieces, shaken with 2 ml of ethanol-water (80 to 20, v/v) and 15 ml of Aquasol and counted for radio-activity. A control incubation of substrate in the absence of HSF-PLA2 was performed in each experiment. The PLA2 activity of the human synovial fluid was corrected for this small control value. […] The specific activity of PLA2 in the pooled human synovial fluid under the optimal assay conditions was 49.2 nmoles [1-^14 C]-oleic aid released hour^-1 mg^-1. The IC50 (μM concentration of test compound that produces 50% inhibition of PLA2 activity) was determined for each test compound.

[2] = system: croton oil-induced mouse ear edema; assay: Croton oil mouse ear edema test; format: in vivo, male CD-1 mice; settings: 1 mg topical, coapplied with croton oil; ear punch weight at 6 hours
Description: Croton Oil Mouse Ear Edema Test
The croton oil-induced mouse ear edema test, a model of irritant-induced contact dermatitis, has been used for evaluation of the PLA2 inhibitors by the topical route of administration. This test was carried out as described in the following references: […]
Twenty five μl of a 1% croton oil solution [dissolved in a mixture of pyridine/water/diethyl ether at a ratio of 5/20/75 (croton oil vehicle)] are applied to the outer side of the right ear of 3-4 week old male CD-1 mice (8 animals per group). The test compounds are dissolved directly in the 1% croton oil solution at various concentrations and coapplied. Control animals receive 25 μl of croton oil vehicle on the right ear. Biopsy punches are removed at 6 hours from the right ear of the animals using a 6 mm skin trephine (Roboz, Washington, D.C.) and the wet weight of the ear punches is determined. The weight of the biopsy punches is a measure of ear inflammation, primarily edema. The data are expressed as percent inhibition relative to control groups.
Statistical analysis of the mean edema values of the control versus the treated groups is performed using Student's t-test. The significance of changes from mean value for vehicle-treated animals is as follows (*p<0.05, **p<0.01, ***p<0.005, ns/not significant).

[3] = system: carrageenan-induced paw edema; assay: Rat carrageenan paw edema; format: in vivo, Lewis rats; settings: 30 mg/kg ip, 1 hr prior to carrageenan
Description: Rat Carrageenan Paw Edema
Representative compounds of the invention were tested in rat carrageenan-induced paw edema to determine their ability to inhibit this acute inflammatory response. Test compounds were administered intraperitoneally or orally to groups of seven Lewis rats (~200 gm) 1 hr prior to carrageenan administration. The test compounds were dissolved in dimethyl sulfoxide for intraperitoneal administration and dissolved or suspended in Labrafil […] for oral administration. At 0 hour, 0.1 mL of 1% carrageenan dissolved in pyrogen free […] was injected subplanetary into the right hind paw to elicit the inflammatory response. The volume (in mL) of the right hind paw was measured by immersion of the paw to the level of the lateral malleolus in an aqueous plethysmometer immediately prior to the injection of carrageenan and then at 1, 2 and 4 hr after carrageenan injection. The paw edema was calculated by subtracting the zero time reading from the readings taken after injection. The percent change of the edema volume from the vehicle treated control was calculated to determine the activity of the test compound. Statistical analysis of the mean paw edema values of the control versus the treated groups was performed using Student's t-test.

[4] = system: acetic acid-induced colitis (colonic mucosa myeloperoxidase); assay: Acetic acid-induced colitis in rats; format: in vivo, male rats (Sprague-Dawley); settings: 10 mg/kg po
Description: Acetic Acid-Induced Colitis in Rats
The rat acetic acid-induced colitis bioassay has been described by J. E. Krawisz, et al. in Amer. J. Proc. Gastro. Col. Rec. Surg. 31, 11-18 (1980), and by P. Sharon and W. F. Stenson in Gastroenterology 88, 55-63 (1985) and 86, 453-460 (1984). Acetic acid-induced colitis is characterized by the movement of inflammatory cells into the colon, with the number of such cells in the mucosa being measured by the activity of myeloperoxidase, a marker enzyme for these cells. Positive desirable activity is indicated by a reduction in the high levels of myeloperoxidase caused by acetic acid. Male rats (Sprague-Dawley), weighing 150 to 300 g, were pretreated twice daily for two days with either the vehicle (water or dimethylsulfoxide) or the test inhibitor compound suspended in water or dissolved in dimethylsulfoxide and orally administered. […] The colonic mucosa was surgically removed and homogenized in an aqueous buffer at pH 6 with a Tissumizer or similar device and myeloperoxidase was measured in the homogenate using o-phenyl enediamine as a chromagen, as described by A. Voller, D. E. Bidwell and A. Bartlett in "The Enzyme Linked Immunosorbent Assay (ELISA)", Zoological Soc., London, 1979, pages 29-30. […]

[5] = system: adjuvant arthritis induced by Freunds complete adjuvant; settings: dose 10 mg/kp ip
Description: Representative compounds of the invention were tested in the standard adjuvant arthritis model in rats, induced by Freunds complete adjuvant, as described by C.

Row | SMILES | inhibition at 5.8 µM ([1]; 5.8 μM test compound) [%] | % Inhib of Croton Oil Mouse Ear Edema (1 mg) [2] [%] | % Inhib of Carrageenan Paw Edema 2 hr 30 mg/kg ip [3] [%] | % Inhib of Myeloperoxidase Accumulation [4] [%] | Change in Paw Volume in ml, Treated [5] [mL] | inhibition at 1 µM ([1]; 1 μM test compound) [%]
1 | CCCCCCCCCCCCCCCCCCOc1cccc(C(=O)N(CC(=O)O)CC(=O)O)c1 [Example 4, N-(Carboxymethyl)-N-[3-(octadecyloxy)benzoyl]glycine] | 50 | 17 | 50 | 112 ± 53 | -0.14 ± 0.06 | 
2 | CCCCCCCCCCCCCCCCCCOc1ccc(C(=O)C(=O)N(CC(=O)O)CC(=O)O)cc1 [Example 65, N-(Carboxymethyl)-N-[2-[4-(octadecyloxy)phenyl]-1,2-dioxoethyl]glycine] |  | 44 | 71 |  | -0.07 ± 0.08 | 74
